Data on three sequences can be found in patent US8076449B2, “Therapeutic agents of colivelin for neurodegenerative diseases” (Tomohiro Chiba, priority 2004, dated 2011).

Assay [1] relates to F11 cells transformed with M146L-PS1. As to the kind of experiment: M146L-PS1-induced neuronal cell death in the presence of ADNF, Trypan blue exclusion assay. The assay is classed as cell-based, rat/mouse hybrid. Conditions: for concentration completely suppressing M146L-PS1-induced cell death in the presence of ADNF: in the presence of 100 nM ADNF, 72 hours. How it is done: The protective effect of colivelin and ADNF used together against neuronal cell death induced by M146L-PS1 was examined. F11 cells were transformed with M146L-PS1 in the presence or absence of […] and treated with varying concentrations (100 aM, 1 fM, 10 fM, 100 fM, 1 pM, 10 pM, 100 pM, 1 nM, 10 nM, or 100 nM) of colivelin or AGA-C8R-HNG17.
After 72 hours of the transformation, cell mortality was measured by Trypan blue exclusion assay (FIG. 4). Approximately 50% of the neuronal cells died after the transformation with mutant PS1 gene, whereas only 10% of the untreated or empty vector-transformed cells died. […] When the M146L-PS1-transformed neuronal cells in the presence of 100 nM ADNF were treated with 10 pM colivelin, the neuronal cells died at a rate equal to that of the untreated (No) or empty vector (vec)-transformed cells.

The test system of a further assay is G93A-SOD1 Tg mice. Briefly: In vivo effect on ALS mice: onset, survival, rotarod (Example 5). Also noted: species or system mouse. How it is done:
Mice treated with a control (n=16), ADNF (n=15), AGA-C8R-HNG17 (n=14), or colivelin (n=13) were compared by the Kaplan-Meier life test. In addition, the average day of death was compared (FIG. 8c), wherein statistical analysis was conducted by one-way ANOVA, followed by Fischer's PLSD test (**p<0.01). The motor function was evaluated by a rotarod test (FIG. 8d). Mice icy-administered with a control (n=13), ADNF (n=14), AGA-C8R-HNG17 (n=14), or colivelin (n=12) were placed onto a rotating rod at a speed of 5 rpm and observed over max 420 seconds, wherein statistical analysis was conducted by repeatedly measured ANOVA and Fischer's PLSD test.
Cannulas were fixed under aseptic conditions to the left lateral ventricles of G93A-SOD1 Tg mice (ALS model mice, 70-day-old). Colivelin ([…] in 3 μl of saline per two days) was icy-injected through the cannulas to compare its protective effect with those of the same amount of ADNF and AGA-C8R-HNG17 (FIG. 8).
The 1-onset (FIG. 8a) and survival (FIG. 8b) of mice treated with a control (n=16), ADNF (n=15), AGA-C8R-HNG17 (n=14), or colivelin (n=13) were compared by the Kaplan-Meier life test. As a result, the colivelin-treated group completely delayed ALS onset up to approximately 114 days, as compared with the ADNF-treated group (approximately 106 days) and the AGA-C8R-HNG17-treated group (approximately 108 days). Regarding survival as well, the colivelin-treated group prolonged the life span of 100% of the mice up to approximately 145 days, as compared with the ADNF-treated group (approximately 133 days) and the AGA-CBR-HNG17-treated group (approximately 138 days). Average age at death was longest in the colivelin-treated mice and was approximately 153 days (FIG. 8c).
Additionally, the motor function was evaluated by the rotarod test (FIG. 8d). Mice treated with a control (n=13), ADNF (n=14), AGA-C8R-HNG17 (n=14), or colivelin (n=12) were placed onto a rotating rod at a speed of 5 rpm and observed over max 420 seconds, wherein statistical analysis was conducted by ANOVA and Fischer's PLSD test.
On the technique in general: The rotarod test checks motor coordination on a turning rod.

The test system of assay [2] is primary cultured cortical neurons treated with Aβ (1-43). Briefly: Neuronal cell death induced by Aβ (1-43) peptide, WST-8 and calcein cell viability assays. In kind it is cell-based, mouse. The procedure: (ii) Test of Neuronal Cell Death Induced by Aβ (1-43) Peptide
Mouse cortical neurons were primarily cultured on a poly-D-lysine-coated 96-well plate (Sumitomo Bakelite, Akita, Japan) in the absence of serum and the presence of N2 […] according to the previous report (Sudo et al., 2000, Mol. Cell. Neurosci., 16: 708-723). The purity of the neurons by this method was 98% or more. The prepared neurons (5.0×10^4 cells/well, 100 μl of medium/well) were cultured for 72 hours in the presence or absence of varying concentrations (100 aM, 1 fM, 10 fM, 100 fM, 1 pM, 10 pM, 100 pM, 1 nM, 10 nM, or 100 nM) of colivelin or AGA-C8R-HNG17 peptide. Since primary cultured neurons temporarily become fragile during medium replacement, the neurons were treated with 25 μM Aβ as follows: at first, a half volume (50 μl) of the old medium was discarded. Next, 50 μM Aβ and 50 μl of prewarmed fresh medium containing varying concentrations of colivelin or AGA-CBR-HNG17 peptides were added to the culture. Aβ (1-43) was purchased from Peptide Institute. The Aβ peptides used at the concentration of 25 μM for inducing neuronal cell death formed aggregation in the medium during 72-hour cell culture at 37° C. (Hashimoto Y, et al., 2001, J Neurosci 21: 9235-9245).
WST-8 cell viability assay was conducted with Cell Counting Kit-8 according to the previous report (Hashimoto Y, et al, 2001, Proc Natl Acad Sci USA 98: 6336-6341).
Calcein assay was conducted with calcein-AM (Dojindo, Kumamoto, Japan) according to the previous report (Hashimoto Y, et al., 2001, J Neurosci 21: 9235-9245).
These assays were simultaneously performed. After 72 hours of the Aβ treatment, the cells were added to a mixture of 10 μl of WST-8 solution and 1 μl of 600 μM calcein-AM and cultured at 37° C. for 2 hours in a CO2 incubator to measure a WST-8 absorption at O.D. 450. To decrease background, the medium was replaced by phosphate-buffered saline, followed by the measurement of calcein-specific fluorescence (excitation: 485 nm, emission: 535 nm) by fluorescence microcopy or with a spectrofluorometer (Wallac 1420 ARVOsx Multi Label Counter; Perkin Elmer, Wellesley, Mass., USA).

The mark [3] stands for this setting: 10 μmol in 3 μl of saline per two days, icv.
Where [4] appears, read: Aβ (1-43)-induced neuronal cell death.

“Also recorded” adds a separate entry of the source. Ends that are not written are not given here.

Take SALLRSIPA [ADNF, reference compound]: in assay [1] (100 nM ADNF alone), the “effect of ADNF itself on cell death” value is reported as “Neither general cell death nor M146L-PS1-induced neuronal cell death was affected”. In addition, in the assay on G93A-SOD1 Tg mice (setting [3]), the “ALS onset completely delayed up to (Kaplan-Meier)” value (shortened to “ALS onset completely delayed up”) is given as “approximately 106 days” and the “life span of 100% of the mice prolonged up to (Kaplan-Meier survival)” value was “approximately 133 days”. In addition, the “concentration achieving complete protection” value in assay [2] (25 μM Aβ (1-43), 72 hours) is given as 100 fM. Also, in assay [2] (Aβ (1-43) toxicity), the “concentration at or over which protective activity attenuated” value was at least 1 nM.
SALLRSIPAPAGASRLLLLTGEIDLP [colivelin]: the “activity level with 100 nM ADNF relative to that without ADNF” value in assay [1] (M146L-PS1, 10 pM with ADNF versus without) is on record as 1/100. Moreover, the “concentration completely suppressing M146L-PS1-induced cell death in the presence of ADNF” value in assay [1] is listed as 10 pM. Further, in the assay on G93A-SOD1 Tg mice (setting [3]), the “ALS onset completely delayed up” value is “approximately 114 days”, the “average age at death” value is “approximately 153 days” and the “life span of 100% of the mice prolonged up to (Kaplan-Meier survival)” value is listed as “approximately 145 days”. In the assay with G93A-SOD1 Tg mice (5 rpm, max 420 seconds, icv treatment), the “motor function by rotarod test” value is “ameliorated most; also recorded: significantly better”. Moreover, the “concentration achieving complete protection” value in assay [2] (25 μM Aβ (1-43), 72 hours) was 100 fM. Besides, in assay [2] (setting [4]), the “potency relative to AGA-C8R-HNG17” value is given as 100 fold and the “potency relative to HNG” value is 100,000 fold. The “protective activity at high concentration” value in assay [2] (at 100 nM) is listed as “did not disappear”.
As to “PAGASRLLLLTGEIDLP [AGA-C8R-HNG17, Pro-Ala-Gly-Ala-Ser-Arg-Leu-Leu-Leu-Leu-Thr-Gly-Glu-Ile-Asp-Leu-Pro, reference compound]”, the “concentration completely suppressing M146L-PS1-induced cell death in the presence of ADNF” value in assay [1] was determined as 10 pM. Also, in the assay with G93A-SOD1 Tg mice (setting [3]), the “ALS onset completely delayed up” value is “approximately 108 days” and the “life span of 100% of the mice prolonged up to (Kaplan-Meier survival)” value is recorded as “approximately 138 days”. Further, the “concentration achieving complete protection” value in assay [2] (25 μM Aβ (1-43), 72 hours) is 10000 fM. Also, in assay [2] (25 μM Aβ (1-43), 72 hours, WST-8, read-out: concentration at which half of the neurons were rescued), the EC50 was 1 pM.
